± gives the expanded uncertainty stated by the source.

This data set can be described thus: molar enthalpy of vaporization or sublimation. The following applies: 298.15 K, Static calorimetry.

Take `COc1cccc(C(C)=O)c1` [3'-methoxyacetophenone]: the molar enthalpy (Liquid) was found to be 16.2 ± 0.287 kcal/mol.

As for `COc1ccccc1C(C)=O` [2'-methoxyacetophenone], the molar enthalpy (Liquid) amounted to 15.9 ± 0.287 kcal/mol.

With `COc1ccc(C(C)=O)cc1` [4'-methoxyacetophenone], the molar enthalpy (Crystal) was determined as 21 ± 0.335 kcal/mol.

(Values after the NIST ThermoML archive (doi:10.1016/j.jct.2014.03.027).)
